Results reported in US20260365670A1, “EGFR INHIBITORS AND USES THEREOF” (DIZAL (JIANGSU) PHARMACEUTICAL CO., LTD., priority 2022, published 2026).
Where two headings read alike, the source gives them in different places.

Key:
EGFR Exon19Del = biological target: T1, EGFR Exon19Del (Homo sapiens, UniProt P00533, DEL746-750); experiment: Inhibition of EGFR Exon19Del biochemical enzymatic activity (HTRF); settings: EGFR Del19, 1 mM ATP, 1 h, room temperature, read-out: IC50 @Del19
T1 construct: purchased Carna Bio
T1 sequence (P00533 with tags, fused parts or gaps DEL746-750 limits assumed): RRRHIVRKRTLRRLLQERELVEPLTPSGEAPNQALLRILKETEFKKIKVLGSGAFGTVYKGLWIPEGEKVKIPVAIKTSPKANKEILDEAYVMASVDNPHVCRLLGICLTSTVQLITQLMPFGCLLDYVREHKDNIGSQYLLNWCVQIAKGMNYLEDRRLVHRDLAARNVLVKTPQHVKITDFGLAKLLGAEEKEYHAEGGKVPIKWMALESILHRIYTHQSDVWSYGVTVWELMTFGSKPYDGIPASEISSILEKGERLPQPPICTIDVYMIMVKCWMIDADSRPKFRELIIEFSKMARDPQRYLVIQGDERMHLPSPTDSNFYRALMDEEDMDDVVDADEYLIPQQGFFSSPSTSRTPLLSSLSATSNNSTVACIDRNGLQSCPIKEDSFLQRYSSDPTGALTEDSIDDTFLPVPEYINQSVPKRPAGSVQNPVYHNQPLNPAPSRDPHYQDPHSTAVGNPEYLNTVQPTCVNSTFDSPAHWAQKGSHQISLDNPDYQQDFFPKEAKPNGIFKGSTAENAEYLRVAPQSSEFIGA
How it was run: (§1)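 HTRF kinase assay: each EGFR enzyme phosphorylated 1 μM biotinylated TK substrate with 1 mM ATP in buffer containing 5 mM MgCl2, 1 mM MnCl2, 0.01% CHAPS, 1 mM DTT, 0.5% DMSO. After 1 h at room temperature, EDTA detection mix stopped the reaction. IC50 came from a four-parameter logistic fit of the 665/615 nm ratio.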

EGFR[T790M/C797S/L858R] = biological target: T2, EGFR[T790M/C797S/L858R] (Homo sapiens, UniProt P00533, C797S/L858R/T790M); experiment: Inhibition of EGFR[T790M/C797S/L858R] biochemical enzymatic activity (HTRF); settings: EGFR T790M-C797S-L858R, 1 mM ATP, 1 h, room temperature, read-out: IC50 (nM) @T790M- C797S - L858R
T2 construct: purchased Carna Bio
How it was run: as §1

EGFR Exon19Del/T790M = biological target: T3, EGFR Exon19Del/T790M (Homo sapiens, UniProt P00533, DEL746-750/T790M); experiment: Inhibition of EGFR Exon19Del/T790M biochemical enzymatic activity (HTRF); settings: EGFR Del19-T790M, 1 mM ATP, 1 h, room temperature, read-out: IC50 (nM) @Del19-T790M
T3 construct: purchased Carna Bio
How it was run: as §1

EGFR L858R/T790M = biological target: T4, EGFR L858R/T790M (Homo sapiens, UniProt P00533, L858R/T790M); experiment: Inhibition of EGFR L858R/T790M biochemical enzymatic activity (HTRF); settings: EGFR L858R-T790M, 1 mM ATP, 1 h, room temperature, read-out: IC50 (nM) @L858R-T790M
T4 construct: purchased Carna Bio
T4 sequence (P00533 25-1210 T790M/L858R): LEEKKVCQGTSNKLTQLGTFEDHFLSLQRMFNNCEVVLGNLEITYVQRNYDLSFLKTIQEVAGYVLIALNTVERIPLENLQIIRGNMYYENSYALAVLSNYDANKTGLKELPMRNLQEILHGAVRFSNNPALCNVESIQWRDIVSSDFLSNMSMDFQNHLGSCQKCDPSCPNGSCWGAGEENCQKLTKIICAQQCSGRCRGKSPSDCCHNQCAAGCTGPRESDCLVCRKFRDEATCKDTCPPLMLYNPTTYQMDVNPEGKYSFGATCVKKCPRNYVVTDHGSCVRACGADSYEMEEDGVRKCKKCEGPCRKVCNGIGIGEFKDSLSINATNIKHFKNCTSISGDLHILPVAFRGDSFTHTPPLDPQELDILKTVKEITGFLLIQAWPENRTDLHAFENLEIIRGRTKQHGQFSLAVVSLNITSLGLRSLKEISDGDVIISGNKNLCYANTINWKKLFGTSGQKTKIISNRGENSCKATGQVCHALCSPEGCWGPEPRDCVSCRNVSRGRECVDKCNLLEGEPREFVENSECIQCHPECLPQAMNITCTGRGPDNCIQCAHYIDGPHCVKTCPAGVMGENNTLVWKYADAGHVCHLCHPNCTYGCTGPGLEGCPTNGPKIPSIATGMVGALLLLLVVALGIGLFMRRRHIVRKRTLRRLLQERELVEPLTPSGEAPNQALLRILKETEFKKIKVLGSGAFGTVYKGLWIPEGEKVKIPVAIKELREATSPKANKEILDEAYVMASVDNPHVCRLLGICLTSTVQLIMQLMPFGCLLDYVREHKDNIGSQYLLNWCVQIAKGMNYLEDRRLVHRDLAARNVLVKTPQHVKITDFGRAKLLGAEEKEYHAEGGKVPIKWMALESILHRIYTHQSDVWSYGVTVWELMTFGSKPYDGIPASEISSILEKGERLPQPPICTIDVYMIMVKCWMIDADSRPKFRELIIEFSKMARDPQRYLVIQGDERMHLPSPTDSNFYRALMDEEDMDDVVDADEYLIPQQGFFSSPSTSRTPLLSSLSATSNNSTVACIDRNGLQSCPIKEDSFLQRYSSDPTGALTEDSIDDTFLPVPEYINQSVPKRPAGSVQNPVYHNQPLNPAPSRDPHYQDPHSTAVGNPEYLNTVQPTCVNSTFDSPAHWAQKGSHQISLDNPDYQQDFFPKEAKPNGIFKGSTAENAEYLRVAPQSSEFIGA
How it was run: as §1

EGFR (d746-750 C797S) = biological target: T5, EGFR (d746-750 C797S) (Homo sapiens, UniProt P00533, C797S/DEL746-750); experiment: Inhibition of EGFR (d746-750 C797S) biochemical enzymatic activity (HTRF); settings: EGFR Del19-C797S, 1 mM ATP, 1 h, room temperature, read-out: IC50 (nM) @Del19-C797S
T5 construct: purchased signalchem
How it was run: as §1

EGFR (C797S L858R) = biological target: T6, EGFR (C797S L858R) (Homo sapiens, UniProt P00533, C797S/L858R); experiment: Inhibition of EGFR (C797S L858R) biochemical enzymatic activity (HTRF); settings: EGFR L858-C797S, 1 mM ATP, 1 h, room temperature, read-out: IC50 (nM) @L858-C797S
T6 construct: purchased signalchem
T6 sequence (P00533 25-1210 C797S/L858R): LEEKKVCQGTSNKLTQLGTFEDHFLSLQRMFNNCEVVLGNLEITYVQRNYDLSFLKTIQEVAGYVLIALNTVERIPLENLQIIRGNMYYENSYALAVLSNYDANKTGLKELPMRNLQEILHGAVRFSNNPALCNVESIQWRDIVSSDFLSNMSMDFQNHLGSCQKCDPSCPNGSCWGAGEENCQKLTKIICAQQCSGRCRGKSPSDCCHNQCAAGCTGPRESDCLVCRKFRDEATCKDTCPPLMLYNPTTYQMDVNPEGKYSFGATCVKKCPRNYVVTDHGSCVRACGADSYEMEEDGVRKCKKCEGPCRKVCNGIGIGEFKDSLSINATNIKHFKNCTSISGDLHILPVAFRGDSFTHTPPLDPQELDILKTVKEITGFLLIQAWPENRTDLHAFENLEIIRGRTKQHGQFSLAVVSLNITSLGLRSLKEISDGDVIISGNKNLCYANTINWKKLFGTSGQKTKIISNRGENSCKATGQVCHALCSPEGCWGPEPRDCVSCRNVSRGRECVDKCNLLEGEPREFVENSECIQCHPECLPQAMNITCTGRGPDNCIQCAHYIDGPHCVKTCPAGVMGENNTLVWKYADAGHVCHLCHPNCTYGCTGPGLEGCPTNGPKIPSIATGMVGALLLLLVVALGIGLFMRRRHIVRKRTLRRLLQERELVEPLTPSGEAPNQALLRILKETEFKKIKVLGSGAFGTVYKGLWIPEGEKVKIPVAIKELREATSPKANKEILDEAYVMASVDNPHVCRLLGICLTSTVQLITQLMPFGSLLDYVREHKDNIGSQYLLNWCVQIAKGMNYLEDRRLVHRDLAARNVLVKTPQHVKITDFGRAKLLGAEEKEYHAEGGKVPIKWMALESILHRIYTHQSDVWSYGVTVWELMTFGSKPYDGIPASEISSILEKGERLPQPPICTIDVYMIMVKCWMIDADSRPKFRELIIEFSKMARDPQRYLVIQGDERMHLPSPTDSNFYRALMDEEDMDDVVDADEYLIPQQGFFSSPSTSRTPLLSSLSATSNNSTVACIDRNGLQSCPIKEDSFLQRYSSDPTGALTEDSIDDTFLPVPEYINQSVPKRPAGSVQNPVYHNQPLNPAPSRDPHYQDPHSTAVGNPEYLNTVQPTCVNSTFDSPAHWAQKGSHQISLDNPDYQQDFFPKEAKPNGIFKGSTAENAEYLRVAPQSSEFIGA
How it was run: as §1

EGFR L858R = biological target: T7, EGFR L858R (Homo sapiens, UniProt P00533, L858R); experiment: Inhibition of EGFR L858R biochemical enzymatic activity (HTRF); settings: 1 mM ATP, 1 h, room temperature, read-out: IC50 (nM) @L858R
T7 construct: purchased Carna Bio
How it was run: as §1

[1] = biological target: T8, EGFR[T790M/C797S/d746-750] (Homo sapiens, UniProt P00533, C797S/DEL746-750/T790M); experiment: Inhibition of EGFR[T790M/C797S/d746-750] biochemical enzymatic activity (HTRF); settings: EGFR T790M-C797S-Del19, 1 mM ATP, 1 h, room temperature, read-out: IC50 (nM) @T790M - C797S - Del19
T8 construct: purchased Carna Bio
T8 sequence (P00533 with tags, fused parts or gaps DEL746-750/T790M/C797S limits assumed): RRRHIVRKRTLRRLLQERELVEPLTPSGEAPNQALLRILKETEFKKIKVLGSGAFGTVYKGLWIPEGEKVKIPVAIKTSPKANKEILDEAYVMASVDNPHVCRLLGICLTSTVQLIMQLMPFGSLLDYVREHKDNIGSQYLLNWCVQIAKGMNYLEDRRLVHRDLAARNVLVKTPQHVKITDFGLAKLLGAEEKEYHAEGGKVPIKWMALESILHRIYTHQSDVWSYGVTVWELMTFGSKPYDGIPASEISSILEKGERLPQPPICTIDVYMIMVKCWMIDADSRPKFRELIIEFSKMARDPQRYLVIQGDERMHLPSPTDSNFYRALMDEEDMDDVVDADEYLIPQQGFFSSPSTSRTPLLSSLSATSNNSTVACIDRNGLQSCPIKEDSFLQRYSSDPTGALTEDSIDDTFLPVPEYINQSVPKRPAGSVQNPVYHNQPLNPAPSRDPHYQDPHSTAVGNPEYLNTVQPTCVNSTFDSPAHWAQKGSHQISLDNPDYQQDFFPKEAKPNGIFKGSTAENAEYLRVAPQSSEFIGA
How it was run: as §1

EGFR wild type = biological target: T9, EGFR wild type (Homo sapiens, UniProt P00533); experiment: Inhibition of EGFR wild type biochemical enzymatic activity (HTRF); settings: EGFR WT, 1 mM ATP, 1 h, room temperature, read-out: IC50 (nM) @WT
T9 construct: purchased Carna Bio
T9 sequence (P00533 25-1210): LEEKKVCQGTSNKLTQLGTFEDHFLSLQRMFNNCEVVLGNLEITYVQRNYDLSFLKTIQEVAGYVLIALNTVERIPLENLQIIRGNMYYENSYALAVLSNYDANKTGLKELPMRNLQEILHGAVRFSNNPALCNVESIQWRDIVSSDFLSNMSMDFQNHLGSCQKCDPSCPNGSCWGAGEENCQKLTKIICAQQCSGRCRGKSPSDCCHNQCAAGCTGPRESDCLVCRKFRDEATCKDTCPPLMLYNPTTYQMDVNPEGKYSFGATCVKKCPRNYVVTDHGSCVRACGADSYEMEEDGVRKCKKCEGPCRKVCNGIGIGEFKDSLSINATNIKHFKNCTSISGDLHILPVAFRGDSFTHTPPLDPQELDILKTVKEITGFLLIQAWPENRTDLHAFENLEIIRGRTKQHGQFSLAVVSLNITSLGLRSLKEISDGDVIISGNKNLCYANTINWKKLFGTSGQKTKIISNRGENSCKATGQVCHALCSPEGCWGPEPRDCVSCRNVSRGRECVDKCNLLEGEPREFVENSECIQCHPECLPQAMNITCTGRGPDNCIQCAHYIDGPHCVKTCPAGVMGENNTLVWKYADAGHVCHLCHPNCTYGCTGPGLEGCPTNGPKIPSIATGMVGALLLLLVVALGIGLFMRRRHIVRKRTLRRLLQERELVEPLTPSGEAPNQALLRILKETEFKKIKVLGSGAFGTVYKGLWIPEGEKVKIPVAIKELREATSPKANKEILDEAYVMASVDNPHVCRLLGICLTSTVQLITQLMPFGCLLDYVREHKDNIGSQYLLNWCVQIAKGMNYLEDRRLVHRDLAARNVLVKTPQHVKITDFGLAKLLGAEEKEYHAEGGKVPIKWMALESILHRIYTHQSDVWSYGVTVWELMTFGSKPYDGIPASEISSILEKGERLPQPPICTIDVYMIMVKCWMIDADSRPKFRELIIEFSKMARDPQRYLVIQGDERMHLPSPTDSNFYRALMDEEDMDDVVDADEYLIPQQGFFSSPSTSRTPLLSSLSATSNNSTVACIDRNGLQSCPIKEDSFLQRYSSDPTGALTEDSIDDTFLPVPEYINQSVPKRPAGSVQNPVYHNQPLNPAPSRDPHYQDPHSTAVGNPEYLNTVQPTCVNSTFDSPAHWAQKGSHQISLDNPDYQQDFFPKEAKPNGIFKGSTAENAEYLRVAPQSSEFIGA
How it was run: as §1

A-431 = experiment: Cell proliferation assay, A-431 cells (GI50, Table 6); type: cell-based; settings: Homo sapiens, A-431, A-431 cells
[2] = tested on: Ba/F3 cells expressing EGFR mutations; experiment: Cell proliferation assay, Ba/F3 cells expressing EGFR mutations (CellTiter-Glo, 72 hours); type: cell-based; settings: Mus musculus, BaF3, 72 h
How it was run: (§2)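 Seed Ba/F3 at 5000 cells/well and PC-9 at 500 cells/well (10% FBS RPMI1640); incubate overnight; add compound dilution series; read a G0 plate; incubate; read G3; GI50 from best-fit curve.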

PC-9 = experiment: Cell proliferation assay, PC-9 cells (CellTiter-Glo, 72 hours); type: cell-based; settings: Homo sapiens, PC-9, 72 h, PC9 cells, read-out: GI50 PC9
How it was run: as §2

[3] = BaF3 cells, EGFR DEL19 - C797S, read-out: GI50 DEL19 - C797S/BaF3
[4] = BaF3 cells, EGFR DEL19 - T790-C797S, read-out: GI50 DEL19 - T790-C797S/BaF3
[5] = BaF3 cells, EGFR L858R - C797S, read-out: GI50 L858R - C797S/BaF3
[6] = BaF3 cells, EGFR L858R - T790-C797S, read-out: GI50 L858R - T790-C797S/BaF3
[7] = BaF3 cells, EGFR L858R - T790M, read-out: GI50 L858R - T790M/BaF3
[8] = BaF3 cells, EGFR L858R, read-out: GI50 L858R/BaF3
[9] = EGFR DEL19 - T790M, read-out: GI50 DEL19 - T790M

In the case of `Cc1cc2cc(n1)-c1cnn(C)c1OCCN1CC3CCC(CC3)(C1)n1c(nc3ccccc31)NC2=O` [Example B1, 15,21-Dimethyl-23-oxa-2,9,11,16,20,21,26-heptaazaheptacyclo[26.2.2.1^{1,26}.1^{13,17}.0^{2,10}.0^{3,8}.0^{18,22}]tetratriaconta-3,5,7,9,13,15,17(34),18(22),19-nonaen-12-one], the IC50 (EGFR Exon19Del) is reported as 150 nM, the IC50 (EGFR[T790M/C797S/L858R]) is reported as 23 nM and the IC50 (EGFR Exon19Del/T790M) is reported as 6.5 nM. It also gave an IC50 (EGFR L858R/T790M) of 15 nM, an IC50 (EGFR (d746-750 C797S)) of 2200 nM and an IC50 (EGFR (C797S L858R)) of 112 nM. For the same molecule, the IC50 (EGFR L858R) was 1480 nM, the IC50 [1] was 13 nM and the IC50 (EGFR wild type) was over 5000 nM. It also gave a GI50 (A-431) of 4390 nM, a GI50 [2, 3] of 95 nM and a GI50 [2, 4] of 20 nM. It also gave a GI50 [2, 5] of 736 nM, a GI50 [2, 6] of 51 nM and a GI50 [2, 7] of 98 nM. The GI50 [2, 8] was 751 nM, the GI50 [2, 9] was 22 nM and the GI50 (PC-9) was 410 nM.
`Cc1cc2cc(n1)-c1cnn(C)c1OCCN1CC3CCC(CC3)(C1)n1c(nc3ccc(N4CCOCC4)cc31)NC2=O` [Example B2, 15,21-Dimethyl-5-(morpholin-4-yl)-23-oxa-2,9,11,16,20,21,26-heptaazaheptacyclo[26.2.2.1^{1,26}.1^{13,17}.0^{2,10}.0^{3,8}.0^{18,22}]tetratriaconta-3,5,7,9,13,15,17(34),18(22),19-nonaen-12-one] gave an IC50 (EGFR Exon19Del) of 47 nM, an IC50 (EGFR[T790M/C797S/L858R]) of 36 nM and an IC50 (EGFR Exon19Del/T790M) of 13 nM. It also gave an IC50 (EGFR L858R/T790M) of 25 nM, an IC50 (EGFR (d746-750 C797S)) of 560 nM and an IC50 (EGFR (C797S L858R)) of 28 nM. It also gave an IC50 (EGFR L858R) of 320 nM, an IC50 [1] of 20 nM and an IC50 (EGFR wild type) of over 5000 nM. For the same molecule, the GI50 (A-431) was 3160 nM, the GI50 [2, 3] was 18 nM and the GI50 [2, 4] was 4.7 nM. It also gave a GI50 [2, 5] of 153 nM, a GI50 [2, 6] of 10 nM and a GI50 [2, 7] of 14 nM. For the same molecule, the GI50 [2, 8] was 125 nM, the GI50 [2, 9] was 5 nM and the GI50 (PC-9) was 102 nM.
`Cc1cc2cc(n1)-c1cnn(C)c1OCCN1CC3CCC(CC3)(C1)n1c(nc3ccc(N4CCN(C)CC4)cc31)NC2=O` [Example B3, 15,21-dimethyl-5-(4-methylpiperazin-1-yl)-23-oxa-2,9,11,16,20,21,26-heptaazaheptacyclo[26.2.2.1^{1,26}.1^{13,17}.0^{2,10}.0^{3,8}.0^{18,22}]tetratriaconta-3,5,7,9,13,15,17(34),18(22),19-nonaen-12-one] gave an IC50 (EGFR Exon19Del) of 7 nM, an IC50 (EGFR[T790M/C797S/L858R]) of 11 nM and an IC50 (EGFR Exon19Del/T790M) of 4.3 nM. It also gave an IC50 (EGFR L858R/T790M) of 7.2 nM, an IC50 (EGFR (d746-750 C797S)) of 36 nM and an IC50 (EGFR (C797S L858R)) of 3.1 nM. It also gave an IC50 (EGFR L858R) of 24 nM, an IC50 [1] of 7.3 nM and an IC50 (EGFR wild type) of 954 nM. The GI50 (A-431) was 2020 nM, the GI50 [2, 3] was 7.5 nM and the GI50 [2, 4] was 1.7 nM. For the same molecule, the GI50 [2, 5] was 58 nM, the GI50 [2, 6] was 5.2 nM and the GI50 [2, 7] was 11 nM. It also gave a GI50 [2, 8] of 41 nM, a GI50 [2, 9] of 2.5 nM and a GI50 (PC-9) of 52 nM.
Work on `Cc1cc2cc(n1)-c1cnn(C)c1OCCN1CCCCC(C1)n1c(nc3ccccc31)NC2=O` (centres unmarked) [Example B4, 15,21-Dimethyl-23-oxa-2,9,11,16,20,21,26-heptaazahexacyclo[24.4.1.1^{13,17}.0^{2,10}.0^{3,8}.0^{18,22}]dotriaconta-3,5,7,9,13(32),14,16,18(22),19-nonaen-12-one] yielded an IC50 (EGFR Exon19Del) of 592 nM, an IC50 (EGFR[T790M/C797S/L858R]) of 532 nM and an IC50 (EGFR Exon19Del/T790M) of 33 nM. It also gave an IC50 (EGFR L858R/T790M) of 847 nM, an IC50 (EGFR (d746-750 C797S)) of 243 nM and an IC50 (EGFR (C797S L858R)) of 3630 nM. For the same molecule, the IC50 (EGFR L858R) was over 5000 nM, the IC50 [1] was 16 nM and the IC50 (EGFR wild type) was over 5000 nM. For the same molecule, the GI50 (A-431) was 3530 nM, the GI50 [2, 3] was 125 nM and the GI50 [2, 4] was 61 nM. The GI50 [2, 5] was 342 nM, the GI50 [2, 6] was 42 nM and the GI50 [2, 8] was 612 nM. It also gave a GI50 [2, 9] of 57 nM and a GI50 (PC-9) of 292 nM.
Molecule `Cc1cc2cc(n1)-c1cnn(C)c1OCCN(CC(F)F)CCn1c(nc3ccccc31)NC2=O` [Example B5] has an IC50 (EGFR Exon19Del) of 108 nM, an IC50 (EGFR[T790M/C797S/L858R]) of 7.1 nM and an IC50 (EGFR Exon19Del/T790M) of 5.1 nM. It also gave an IC50 (EGFR L858R/T790M) of 13 nM, an IC50 (EGFR (d746-750 C797S)) of 48 nM and an IC50 (EGFR (C797S L858R)) of 195 nM. It also gave an IC50 (EGFR L858R) of 440 nM, an IC50 [1] of 4.1 nM and an IC50 (EGFR wild type) of over 5000 nM. For the same molecule, the GI50 (A-431) was 2820 nM, the GI50 [2, 3] was 62 nM and the GI50 [2, 4] was 31 nM. For the same molecule, the GI50 [2, 5] was 66 nM, the GI50 [2, 6] was 9.1 nM and the GI50 [2, 7] was 7 nM. It also gave a GI50 [2, 8] of 144 nM, a GI50 [2, 9] of 41 nM and a GI50 (PC-9) of 115 nM.
